Data: patent US20230348424A1, “HETEROCYCLIC COMPOUNDS AND METHODS OF USE” (Schrödinger, Inc., priority 2022, published 2023)

Assays:
human SOS1 = human SOS1 (Homo sapiens (Human), UniProt Q07889); test: Surface Plasmon Resonance (SPR) SOS1 Binding Assay; conditions: biotinylated SOS1 (res. 564-1049), Biacore 8K, 25° C., kinetic or steady state fit, 1:1 binding; read-out: hSOS1 KD
Summary of the method: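 Biotinylated Avi-tagged human SOS1 (res. 564-1049) captured on streptavidin chip (~3,000 RU); compounds injected 60 s, dissociation 600 s, at 25° C in Tris pH 8.0 buffer with 5% DMSO. Reference- and blank-subtracted; KD from kinetic or steady-state 1:1 binding fit.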

[1] = biological target: SOS1:KRAS (G12C) interaction (Homo sapiens (Human), UniProt Q07889); test: SOS1 KRas(G12C) FRET Assay; format: binding; conditions: 0.5 nM His10-SOS1 (res. 564-1049), 2.5 nM GST-KRAS G12C (res. 1-169), 2 hrs at RT
Summary of the method: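 GST-KRAS G12C (res. 1-169) at 2.5 nM and His10-SOS1 (res. 564-1049) at 0.5 nM, final, in PBS with 0.1% BSA, 5 mM MgCl2, 100 mM KF, 5 mM DTT and 0.5% DMSO. After 2 h at RT, FRET read at 665/615 nm and normalized to DMSO and no-SOS1 controls. IC50 by non-linear regression.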

Sequence of SOS1:KRAS (G12C) interaction (Q07889 564-1049, stated change not applied): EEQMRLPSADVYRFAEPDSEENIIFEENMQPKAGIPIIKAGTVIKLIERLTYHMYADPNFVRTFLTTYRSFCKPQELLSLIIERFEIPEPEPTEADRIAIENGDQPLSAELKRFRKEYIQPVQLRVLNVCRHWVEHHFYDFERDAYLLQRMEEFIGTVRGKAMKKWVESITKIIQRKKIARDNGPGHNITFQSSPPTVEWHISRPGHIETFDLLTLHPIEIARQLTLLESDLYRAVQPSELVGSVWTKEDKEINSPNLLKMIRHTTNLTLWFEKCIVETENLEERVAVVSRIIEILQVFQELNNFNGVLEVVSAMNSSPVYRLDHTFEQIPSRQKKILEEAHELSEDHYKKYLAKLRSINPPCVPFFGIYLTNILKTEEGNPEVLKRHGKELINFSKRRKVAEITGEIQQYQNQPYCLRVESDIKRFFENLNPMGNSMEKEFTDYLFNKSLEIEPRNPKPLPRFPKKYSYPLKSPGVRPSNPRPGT
Sequence of human SOS1 (Q07889 564-1049): as the sequence (Q07889 564-1049, stated change not applied) above

| Compound | Kd (human SOS1) [nM] | IC50 [1] [nM] |
| --- | --- | --- |
| Cc1c([C@@H](C)NC(=O)c2cn(C3CCOCC3)c(=O)cc2N[C@@H]2CC[C@@H](O)C2)cccc1C(F)(F)F [Example 14, 4-(((1R,3R)-3-hydroxycyclopentyl)amino)-N-((R)-1-(2-methyl-3-(trifluoromethyl)phenyl)ethyl)-6-oxo-1-(tetrahydro-2H-pyran-4-yl)-1,6-dihydropyridine-3-carboxamide] | 103 | 225 |
| Cc1c([C@@H](C)NC(=O)c2cn(C3CCOCC3)c(=O)cc2NC2CCN(CCF)CC2)cccc1C(F)(F)F [Example 16, (R)-4-((1-(2-fluoroethyl)piperidin-4-yl)amino)-N-(1-(2-methyl-3-(trifluoromethyl)phenyl)ethyl)-6-oxo-1-(tetrahydro-2H-pyran-4-yl)-1,6-dihydropyridine-3-carboxamide] | 23 | 29.4 |
| Cc1c([C@@H](C)NC(=O)c2cn(C3CCOCC3)c(=O)cc2N[C@H]2[C@@H]3CN(C)C[C@@H]32)cccc1C(F)(F)F [Example 26, N-((R)-1-(2-methyl-3-(trifluoromethyl)phenyl)ethyl)-4-(((1R,5S,6s)-3-methyl-3-azabicyclo[3.1.0]hexan-6-yl)amino)-6-oxo-1-(tetrahydro-2H-pyran-4-yl)-1,6-dihydropyridine-3-carboxamide] | 11 | 27.1 |
| COC1(CNc2cc(=O)n(C3CCOCC3)cc2C(=O)N[C@H](C)c2cccc(C(F)(F)F)c2C)CN(C)C1 [Example 29, (R)-4-(((3-methoxy-1-methylazetidin-3-yl)methyl)amino)-N-(1-(2-methyl-3-(trifluoromethyl)phenyl)ethyl)-6-oxo-1-(tetrahydro-2H-pyran-4-yl)-1,6-dihydropyridine-3-carboxamide] | 11 | 19.1 |
| Cc1c([C@@H](C)NC(=O)c2cn(C3CCOCC3)c(=O)cc2NC2CCOCC2)cccc1C(F)(F)F [Example 42, (R)-N-(1-(2-methyl-3-(trifluoromethyl)phenyl)ethyl)-6-oxo-1-(tetrahydro-2H-pyran-4-yl)-4-((tetrahydro-2H-pyran-4-yl)amino)-1,6-dihydropyridine-3-carboxamide] | 186 | 553 |
| C[C@@H](NC(=O)c1cn(C2(C(F)F)CC2)c(=O)cc1NC1CCN(C)CC1)c1cccc(C(F)F)c1F [Example 49, (R)-N-(1-(3-(difluoromethyl)-2-fluorophenyl)ethyl)-1-(1-(difluoromethyl)cyclopropyl)-4-((1-methylpiperidin-4-yl)amino)-6-oxo-1,6-dihydropyridine-3-carboxamide] | 3 | 13.5 |
| C[C@@H](NC(=O)c1cn(C2(C(F)F)CC2)c(=O)cc1NCCN(C)C)c1cccc(C(F)F)c1F [Example 61, (R)-N-(1-(3-(difluoromethyl)-2-fluorophenyl)ethyl)-1-(1-(difluoromethyl)cyclopropyl)-4-((2-(dimethylamino)ethyl)amino)-6-oxo-1,6-dihydropyridine-3-carboxamide] | 34 | 65 |
| C[C@@H](NC(=O)c1cn([C@@H]2CCOC[C@H]2F)c(=O)cc1NC1CCN(C)CC1)c1cccc(C(F)F)c1F [Example 79, N-((R)-1-(3-(difluoromethyl)-2-fluorophenyl)ethyl)-1-((3S,4R)-3-fluorotetrahydro-2H-pyran-4-yl)-4-((1-methylpiperidin-4-yl)amino)-6-oxo-1,6-dihydropyridine-3-carboxamide] | 2 | 3.7 |
| C[C@@H](NC(=O)c1cn([C@H]2CCOC[C@@H]2F)c(=O)cc1NC1CCN(C)CC1)c1cccc(C(F)F)c1F [Example 80, N-((R)-1-(3-(difluoromethyl)-2-fluorophenyl)ethyl)-1-((3R,4S)-3-fluorotetrahydro-2H-pyran-4-yl)-4-((1-methylpiperidin-4-yl)amino)-6-oxo-1,6-dihydropyridine-3-carboxamide] | 8 | 16.7 |
| C[C@@H](NC(=O)c1cn(C2(C(F)F)CC2)c(=O)cc1NCCN1CCOCC1)c1cccc(C(F)F)c1F [Example 81, (R)-N-(1-(3-(difluoromethyl)-2-fluorophenyl)ethyl)-1-(1-(difluoromethyl)cyclopropyl)-4-((2-morpholinoethyl)amino)-6-oxo-1,6-dihydropyridine-3-carboxamide] | 96 | 174 |
| C[C@@H](NC(=O)c1cn(C2(C(F)F)CC2)c(=O)cc1N[C@H]1CN2CCC1CC2)c1cccc(C(F)F)c1F [Example 83, N-((R)-1-(3-(difluoromethyl)-2-fluorophenyl)ethyl)-1-(1-(difluoromethyl)cyclopropyl)-6-oxo-4-(((R)-quinuclidin-3-yl)amino)-1,6-dihydropyridine-3-carboxamide] | 20 | 25.7 |
| C[C@@H](NC(=O)c1cn(C2(C(F)F)CC2)c(=O)cc1N[C@@H]1CN2CCC1CC2)c1cccc(C(F)F)c1F [Example 84, N-((R)-1-(3-(difluoromethyl)-2-fluorophenyl)ethyl)-1-(1-(difluoromethyl)cyclopropyl)-6-oxo-4-(((S)-quinuclidin-3-yl)amino)-1,6-dihydropyridine-3-carboxamide] | 9 | 10.2 |
| C[C@@H](NC(=O)c1cn(C2(C(F)F)CC2)c(=O)cc1NC[C@@H]1CC2CCN1CC2)c1cccc(C(F)F)c1F [Example 85, N-((R)-1-(3-(difluoromethyl)-2-fluorophenyl)ethyl)-1-(1-(difluoromethyl)cyclopropyl)-6-oxo-4-((((S)-quinuclidin-2-yl)methyl)amino)-1,6-dihydropyridine-3-carboxamide] | 12 | 26.1 |
| C[C@@H](NC(=O)c1cn(C2(C(F)F)CC2)c(=O)cc1NC[C@H]1CC2CCN1CC2)c1cccc(C(F)F)c1F [Example 86, N-((R)-1-(3-(difluoromethyl)-2-fluorophenyl)ethyl)-1-(1-(difluoromethyl)cyclopropyl)-6-oxo-4-((((R)-quinuclidin-2-yl)methyl)amino)-1,6-dihydropyridine-3-carboxamide] | 29 | 73.1 |
| C[C@H](Nc1cc(=O)n(C2(C(F)F)CC2)cc1C(=O)N[C@H](C)c1cccc(C(F)F)c1F)c1cncn1C [Example 87, N-((R)-1-(3-(difluoromethyl)-2-fluorophenyl)ethyl)-1-(1-(difluoromethyl)cyclopropyl)-4-(((S)-1-(1-methyl-1H-imidazol-5-yl)ethyl)amino)-6-oxo-1,6-dihydropyridine-3-carboxamide] | 84 | 61.7 |

More lines, now with the values ahead:

| Kd (human SOS1) [nM] | IC50 [1] [nM] | Compound |
| --- | --- | --- |
| 10.4 | 22.7 | Cc1c([C@@H](C)NC(=O)c2cn(C3CCOCC3)c(=O)c(C#N)c2NC2CCN(C)CC2)cccc1C(F)(F)F [Example 20, (R)-5-cyano-N-(1-(2-methyl-3-(trifluoromethyl)phenyl)ethyl)-4-((1-methylpiperidin-4-yl)amino)-6-oxo-1-(tetrahydro-2H-pyran-4-yl)-1,6-dihydropyridine-3-carboxamide] |
| 17 | 53.7 | Cc1c([C@@H](C)NC(=O)c2cn(C3CCOCC3)c(=O)cc2NC2CC3(C2)CN(C)C3)cccc1C(F)(F)F [Example 21, (R)-4-((2-methyl-2-azaspiro[3.3]heptan-6-yl)amino)-N-(1-(2-methyl-3-(trifluoromethyl)phenyl)ethyl)-6-oxo-1-(tetrahydro-2H-pyran-4-yl)-1,6-dihydropyridine-3-carboxamide] |
| 21 | 37.9 | Cc1c([C@@H](C)NC(=O)c2cn(C3CCOCC3)c(=O)cc2NC2(C)CCN(C)CC2)cccc1C(F)(F)F [Example 45, (R)-4-((1,4-dimethylpiperidin-4-yl)amino)-N-(1-(2-methyl-3-(trifluoromethyl)phenyl)ethyl)-6-oxo-1-(tetrahydro-2H-pyran-4-yl)-1,6-dihydropyridine-3-carboxamide] |
| 8 | 20.3 | Cc1c([C@@H](C)NC(=O)c2cn(C3(C(F)F)CC3)c(=O)cc2NC2CCN(C)CC2)cccc1C(F)(F)F [Example 50, (R)-1-(1-(difluoromethyl)cyclopropyl)-N-(1-(2-methyl-3-(trifluoromethyl)phenyl)ethyl)-4-((1-methylpiperidin-4-yl)amino)-6-oxo-1,6-dihydropyridine-3-carboxamide] |
| 8 | 18.5 | C[C@@H](NC(=O)c1cn(C2(C(F)F)CC2)c(=O)cc1NC1CCN(C)CC1)c1cccc(C(C)(F)F)c1F [Example 51, (R)-N-(1-(3-(1,1-difluoroethyl)-2-fluorophenyl)ethyl)-1-(1-(difluoromethyl)cyclopropyl)-4-((1-methylpiperidin-4-yl)amino)-6-oxo-1,6-dihydropyridine-3-carboxamide] |
| 6 | 13.6 | C[C@@H](NC(=O)c1cn(C2(C(F)F)CC2)c(=O)cc1NC1CCN(C)CC1)c1cccc(C(F)(F)F)c1F [Example 52, (R)-1-(1-(difluoromethyl)cyclopropyl)-N-(1-(2-fluoro-3-(trifluoromethyl)phenyl)ethyl)-4-((1-methylpiperidin-4-yl)amino)-6-oxo-1,6-dihydropyridine-3-carboxamide] |
| 17 | 26.3 | C[C@@H](NC(=O)c1cn(C2(C(F)F)CC2)c(=O)cc1NC1CCN(CCF)CC1)c1cccc(C(F)F)c1F [Example 82, (R)-N-(1-(3-(difluoromethyl)-2-fluorophenyl)ethyl)-1-(1-(difluoromethyl)cyclopropyl)-4-((1-(2-fluoroethyl)piperidin-4-yl)amino)-6-oxo-1,6-dihydropyridine-3-carboxamide] |
